In PubChem BioAssay (NCI):
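Cultured in 96-well plates, cells were exposed to test compound for 48 hours across five concentrations. TGI: total growth inhibition.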

How the values were obtained:
Assay in all cases: inhibition of tumour cell growth, NCI panel, 48 h
M19-MEL melanoma = system: M19-MEL melanoma
HOP-18 NSCLC = system: HOP-18 NSCLC
ACHN renal = system: ACHN renal
LXFL 529 NSCLC = system: LXFL 529 NSCLC
A549 NSCLC = system: A549 NSCLC
KM20L2 colon = system: KM20L2 colon
DLD-1 colon = system: DLD-1 colon
DMS 273 small cell lung = system: DMS 273 small cell lung
XF 498 CNS = system: XF 498 CNS
SNB-78 CNS = system: SNB-78 CNS
DMS 114 small cell lung = system: DMS 114 small cell lung
RXF-631 renal = system: RXF-631 renal

Compound	TGI (M19-MEL melanoma)	TGI (HOP-18 NSCLC)	TGI (ACHN renal)	TGI (LXFL 529 NSCLC)	TGI (A549 NSCLC)	TGI (KM20L2 colon)	TGI (DLD-1 colon)	TGI (DMS 273 small cell lung)	TGI (XF 498 CNS)	TGI (SNB-78 CNS)	TGI (DMS 114 small cell lung)	TGI (RXF-631 renal)
CCN1CCC(O)(c2ccc(Cl)cc2)C(C(=O)c2ccc(Cl)cc2)C1 (configuration not stated)	> 100 µM	95.9 µM	> 100 µM	> 100 µM	> 100 µM	> 100 µM	> 100 µM	> 100 µM	> 100 µM	> 100 µM		
Nc1nc2c3nc(Nc4ccccc4)sc3nc(=O)n2c2sc(Nc3ccccc3)nc12	> 100 µM	> 100 µM	> 100 µM	> 100 µM	> 100 µM	> 100 µM	> 100 µM	> 100 µM	> 100 µM	> 100 µM		
COC(=O)c1c2cccccc-2c(Cc2c3cccccc-3c(C(=O)OC)c2O)c1O	> 100 µM	> 100 µM	> 100 µM		> 100 µM	> 100 µM	> 100 µM	> 100 µM	> 100 µM	> 100 µM	> 100 µM	
CCCCCCCCCCCCCCCCCCN(C)CC(COP(=O)([O-])OCC[N+](C)(C)C)OC (configuration not stated)	13.1 µM	32.5 µM	48.8 µM	21.6 µM	46.8 µM	4.16 µM	17.3 µM	5.4 µM	29.9 µM	21.3 µM	20.5 µM	43.7 µM
